According to PubChem BioAssay AID2060490 (Molecular Pharmacology Branch, DTP, NCI, 2025):
pIC50: −log10 of the molar value.

System: 885512-296-R-J2-PDC complex spheroid viability
Assay: Anticancer human tumor 885512-296-R-J2-PDC patient-derived breast carcinoma cell line growth inhibition [GQUAD]
Details: for pIC50: curve of first compound; for viability, T/C: stronger effect = lower value
Summary of the method: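 Multi-cell-type spheroids of tumor cells with HUVEC and mesenchymal stem cells, treated with drug combinations. Concentrations descend in half-log steps from near clinical Cmax, or from 10 microM where Cmax is unknown; viability read-out.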

[1] = second compound 0.0316 µM, first compound 0.0316 µM
[2] = second compound 0.0316 µM, first compound 0.316 µM
[3] = second compound 0.1 µM, first compound 0.0316 µM
[4] = second compound 0.1 µM, first compound 0.316 µM
[5] = second compound 0.316 µM, first compound 0.0316 µM
[6] = second compound 0.316 µM, first compound 0.316 µM
[7] = second compound 1 µM, first compound 0.0316 µM
[8] = second compound 1 µM, first compound 0.316 µM
[9] = second compound 3.16 µM, first compound 0.0316 µM
[10] = second compound 3.16 µM, first compound 0.316 µM
[11] = second compound 10 µM, first compound 0.0316 µM
[12] = second compound 10 µM, first compound 0.316 µM
[13] = second compound 0.0316 µM, first compound 0.000999 µM
[14] = second compound 0.0316 µM, first compound 0.00316 µM
[15] = second compound 0.0316 µM, first compound 0.00999 µM
[16] = second compound 0.0316 µM, first compound 0.0999 µM
[17] = second compound 0.1 µM, first compound 0.000999 µM
[18] = second compound 0.1 µM, first compound 0.00316 µM
[19] = second compound 0.1 µM, first compound 0.00999 µM
[20] = second compound 0.1 µM, first compound 0.0999 µM
[21] = second compound 0.316 µM, first compound 0.000999 µM
[22] = second compound 0.316 µM, first compound 0.00316 µM
[23] = second compound 0.316 µM, first compound 0.00999 µM
[24] = second compound 0.316 µM, first compound 0.0999 µM
[25] = second compound 1 µM, first compound 0.000999 µM
[26] = second compound 1 µM, first compound 0.00316 µM
[27] = second compound 1 µM, first compound 0.00999 µM
[28] = second compound 1 µM, first compound 0.0999 µM
[29] = second compound 3.16 µM, first compound 0.000999 µM
[30] = second compound 3.16 µM, first compound 0.00316 µM
[31] = second compound 3.16 µM, first compound 0.00999 µM
[32] = second compound 3.16 µM, first compound 0.0999 µM
[33] = second compound 10 µM, first compound 0.000999 µM
[34] = second compound 10 µM, first compound 0.00316 µM
[35] = second compound 10 µM, first compound 0.00999 µM
[36] = second compound 10 µM, first compound 0.0999 µM
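Further: spheroids exposed to the compounds for one week.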
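Wherever viability, T/C is given: percent of tumor spheroid viability relative to DMSO vehicle control wells.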

`C=CC(=O)N1CCN(c2nc(=O)n(-c3c(C)ccnc3C(C)C)c3nc(-c4c(O)cccc4F)c(F)cc23)C(C)C1` (stereo unspecified) + Cc1[nH]c2ccc(F)cc2c1-c1nc2c3cccnc3c3ncccc3c2[nH]1 was tested, and the pIC50 (second compound 0.0316 µM) was < 5.00, the pIC50 (second compound 0.1 µM) was < 5.00 and the pIC50 (second compound 0.316 µM) was < 5.00. The pIC50 (second compound 1 µM) was < 5.00, the pIC50 (second compound 3.16 µM) was > 7.50 and the pIC50 (second compound 10 µM) was > 7.50. The viability, T/C [1] was 122%, the viability, T/C (second compound 0.0316 µM, first compound 0.1 µM) was 91% and the viability, T/C [2] was 84.7%. It also gave a viability, T/C (second compound 0.0316 µM, first compound 1 µM) of 106%, a viability, T/C (second compound 0.0316 µM, first compound 3.16 µM) of 111% and a viability, T/C (second compound 0.0316 µM, first compound 10 µM) of 96.3%. It also gave a viability, T/C [3] of 118%, a viability, T/C (second compound 0.1 µM, first compound 0.1 µM) of 96.2% and a viability, T/C [4] of 97.4%. For the same compound, the viability, T/C (second compound 0.1 µM, first compound 1 µM) was 102%, the viability, T/C (second compound 0.1 µM, first compound 3.16 µM) was 103% and the viability, T/C (second compound 0.1 µM, first compound 10 µM) was 93.4%. The viability, T/C [5] was 92.9%, the viability, T/C (second compound 0.316 µM, first compound 0.1 µM) was 103% and the viability, T/C [6] was 102%. The viability, T/C (second compound 0.316 µM, first compound 1 µM) was 102%, the viability, T/C (second compound 0.316 µM, first compound 3.16 µM) was 91.9% and the viability, T/C (second compound 0.316 µM, first compound 10 µM) was 88.8%. It also gave a viability, T/C [7] of 78.9%, a viability, T/C (second compound 1 µM, first compound 0.1 µM) of 79.1% and a viability, T/C [8] of 95.7%. The viability, T/C (second compound 1 µM, first compound 1 µM) was 90%, the viability, T/C (second compound 1 µM, first compound 3.16 µM) was 77.3% and the viability, T/C (second compound 1 µM, first compound 10 µM) was 72.1%. The viability, T/C [9] was 30.6%, the viability, T/C (second compound 3.16 µM, first compound 0.1 µM) was 22.9% and the viability, T/C [10] was 21.2%. The viability, T/C (second compound 3.16 µM, first compound 1 µM) was 31.2%, the viability, T/C (second compound 3.16 µM, first compound 3.16 µM) was 32.9% and the viability, T/C (second compound 3.16 µM, first compound 10 µM) was 27.2%. It also gave a viability, T/C [11] of 1.88%, a viability, T/C (second compound 10 µM, first compound 0.1 µM) of 1.76% and a viability, T/C [12] of 2.07%. The viability, T/C (second compound 10 µM, first compound 1 µM) was 3.47%, the viability, T/C (second compound 10 µM, first compound 3.16 µM) was 6.47% and the viability, T/C (second compound 10 µM, first compound 10 µM) was 3.97%.

Work on `CC[C@@]1(O)C(=O)OCc2c1cc1n(c2=O)Cc2cc3c(CN(C)C)c(O)ccc3nc2-1` + Cc1[nH]c2ccc(F)cc2c1-c1nc2c3cccnc3c3ncccc3c2[nH]1 yielded a pIC50 (second compound 0.0316 µM) of 7.58, a pIC50 (second compound 0.1 µM) of 7.53 and a pIC50 (second compound 0.316 µM) of 7.52. The pIC50 (second compound 1 µM) was 7.70, the pIC50 (second compound 3.16 µM) was > 9.00 and the pIC50 (second compound 10 µM) was > 9.00. It also gave a viability, T/C [13] of 105%, a viability, T/C [14] of 88.5% and a viability, T/C [15] of 89.9%. It also gave a viability, T/C [1] of 41.7%, a viability, T/C [16] of 14.9% and a viability, T/C [2] of 6.49%. The viability, T/C [17] was 110%, the viability, T/C [18] was 101% and the viability, T/C [19] was 98.5%. It also gave a viability, T/C [3] of 46.9%, a viability, T/C [20] of 10.7% and a viability, T/C [4] of 4.48%. The viability, T/C [21] was 96%, the viability, T/C [22] was 101% and the viability, T/C [23] was 87.3%. For the same compound, the viability, T/C [5] was 48.3%, the viability, T/C [24] was 11.2% and the viability, T/C [6] was 3.51%. It also gave a viability, T/C [25] of 68.2%, a viability, T/C [26] of 74.6% and a viability, T/C [27] of 72%. For the same compound, the viability, T/C [7] was 35.7%, the viability, T/C [28] was 9.71% and the viability, T/C [8] was 3.76%. For the same compound, the viability, T/C [29] was 14.8%, the viability, T/C [30] was 23.3% and the viability, T/C [31] was 14%. For the same compound, the viability, T/C [9] was 6.97%, the viability, T/C [32] was 2.52% and the viability, T/C [10] was 2.01%. The viability, T/C [33] was 1.29%, the viability, T/C [34] was 2.13% and the viability, T/C [35] was 1.51%. The viability, T/C [11] was 1.58%, the viability, T/C [36] was 1.12% and the viability, T/C [12] was 0.82%.

With `CCc1c2c(nc3ccc(O)cc13)-c1cc3c(c(=O)n1C2)COC(=O)[C@]3(O)CC` + Cc1[nH]c2ccc(F)cc2c1-c1nc2c3cccnc3c3ncccc3c2[nH]1 the pIC50 (second compound 0.0316 µM) was > 9.00, the pIC50 (second compound 0.1 µM) was > 9.00 and the pIC50 (second compound 0.316 µM) was > 9.00. The pIC50 (second compound 1 µM) was > 9.00, the pIC50 (second compound 3.16 µM) was > 9.00 and the pIC50 (second compound 10 µM) was > 9.00. It also gave a viability, T/C [13] of 26.3%, a viability, T/C [14] of 9.48% and a viability, T/C [15] of 6.06%. The viability, T/C [1] was 3.24%, the viability, T/C [16] was 2.09% and the viability, T/C [2] was 1.42%. For the same compound, the viability, T/C [17] was 25.8%, the viability, T/C [18] was 9.37% and the viability, T/C [19] was 5.76%. The viability, T/C [3] was 2.48%, the viability, T/C [20] was 1.88% and the viability, T/C [4] was 1.48%. It also gave a viability, T/C [21] of 28.2%, a viability, T/C [22] of 9.08% and a viability, T/C [23] of 4.66%. The viability, T/C [5] was 2.27%, the viability, T/C [24] was 1.56% and the viability, T/C [6] was 1.34%. For the same compound, the viability, T/C [25] was 26%, the viability, T/C [26] was 8.76% and the viability, T/C [27] was 2.75%. It also gave a viability, T/C [7] of 1.69%, a viability, T/C [28] of 1.68% and a viability, T/C [8] of 1.43%. The viability, T/C [29] was 3.36%, the viability, T/C [30] was 2.2% and the viability, T/C [31] was 2.07%. It also gave a viability, T/C [9] of 1.56%, a viability, T/C [32] of 1.71% and a viability, T/C [10] of 2.07%. It also gave a viability, T/C [33] of 1.69%, a viability, T/C [34] of 1.34% and a viability, T/C [35] of 1.31%. It also gave a viability, T/C [11] of 1.08%, a viability, T/C [36] of 0.89% and a viability, T/C [12] of 1.57%.
